Values of other authors, collected in PMC7439511 (Science Advances, 2020).

Test system: RACK7 (ZMYND8)

Substance	RACK7 binding to N-terminal tail of histone H3
H3K4me1: H3K4me1 peptide, amino acids 1 to 21	bind
H3K4me0: H3K4me0 (H3) peptide, amino acids 1 to 21	bind
